Literature values, collected in US20260144771A1, “Use of Triheptanoin Oil for Primary-Specific Pyruvate Dehydrogenase Complex (PDC) Deficiency” (University of Pittsburgh - Of the Commonwealth System of …, priority 2022, published 2026).
Each block holds one compound with its values, some of them ahead of it.

What was measured:
[1] = subjects with other mitochondrial disorders such as MELAS
[2] = human, in vivo
PDC = PDC (Homo sapiens, UniProt P10515); details: read-out: Ki for end-product inhibition of PDC
[3] = test system: PDC and 2-oxoglutarate dehydrogenase activities; details: chronic epilepsy mouse model
[4] = subjects with FAO disorders
[5] = a case of pyruvate carboxylase deficiency

Compound: O=C(O)C(Cl)Cl [DCA, dichloroacetate]
neuropathy [1]: associated with toxic neuropathy

Compound: Cc1ncc(C[n+]2csc(CCO)c2C)c(N)n1 [Thiamine, thiamine]
adverse side-effects [2]: has not been reported to have adverse side-effects

Ki (PDC): 5 to 10 µM
Compound: CC(=O)SCCNC(=O)CCNC(=O)[C@H](O)C(C)(C)COP(=O)(O)OP(=O)(O)OC[C@H]1O[C@@H](n2cnc3c(N)ncnc32)[C@H](O)[C@@H]1OP(=O)(O)O [acetyl-CoA]

Ki (PDC): 3000 to 4000 µM
Compound: CCC(=O)SCCNC(=O)CCNC(=O)[C@H](O)C(C)(C)COP(=O)(O)OP(=O)(O)OC[C@H]1O[C@@H](n2cnc3c(N)ncnc32)[C@H](O)[C@@H]1OP(=O)(O)O [propionyl-CoA]

Compound: CCCCCCC(=O)OCC(COC(=O)CCCCCC)OC(=O)CCCCCC [triheptanoin]
most commonly reported side effect: GI distress, share of cases: ≥ 10 % of cases
effect on PDC and 2-oxoglutarate dehydrogenase activities [3]: prevented reduction
incorporation of 13C derived from 13C-glucose in TCA cycle intermediates [3]: partially corrected the reduced incorporation
biochemical and physical outcomes before and after treatment [4]: significant improvement in cardiomyopathy and decreased frequency and severity of rhabdomyolysis
biochemical outcomes [5]: rapid and significant improvement of biochemical outcomes
